# Assay results published in patent US20030004172A1, “Fused pyrimidinone matrix metalloproteinase inhibitors” (priority 2001, published 2003).
# Molecular target: MMP-13CD (catalytic domain of collagenase-3) (Homo sapiens, UniProt P45452)
# Test: Thiopeptolide substrate hydrolysis inhibition assay, MMP-13CD
# Format: biochemical
# Settings: Table I; thiopeptolide substrate, HEPES pH 7.0, 22° C.; read-out: MMP-13CD IC50
# Source text: Thiopeptolide substrates show virtually no decomposition or hydrolysis at or below neutral pH in the absence of a matrix metalloproteinase enzyme.
row,Compound,IC50 [nM]
1,"O=C(OCc1ccoc1)c1cc2c(=O)n(Cc3ccccc3)c(=O)[nH]c2s1 [Example 71, 3-Benzyl-2,4-dioxo-1,2,3,4-tetrahydro-thieno[2,3-d]pyrimidine-6-carboxylic acid furan-3-ylmethyl ester]",13000
2,"Cn1c(=O)n(Cc2ccccc2)c(=O)c2cc(C(=O)OCC3CCCCO3)sc21 (stereo not shown) [Example 178, 3-Benzyl-1-methyl-2,4-dioxo-1,2,3,4-tetrahydro-thieno[2,3-d]pyrimidine-6-carboxylic acid tetrahydro-pyran-2-ylmethyl ester]",> 100000
3,"Cn1c(=O)n(Cc2ccccc2)c(=O)c2cc(C(=O)OCCC3CCCCN3)sc21 (stereo not shown) [Example 195, 3-Benzyl-1-methyl-2,4-dioxo-1,2,3,4-tetrahydro-thieno[2,3-d]pyrimidine-6-carboxylic acid 2-piperidin-2-yl-ethyl ester]",> 100000
4,"COc1cccc(CNC(=O)c2cc3c(=O)n(CCN)c(=O)n(C)c3s2)c1 [Example 252, 3-(2-Aminoethyl)-1-methyl-2,4-dioxo-1,2,3,4-tetrahydro-thieno[2,3-d]pyrimidine-6-carboxylic acid 3-methoxy-benzylamide]",24000
5,"COc1cccc(CNC(=O)c2cc3c(=O)n(Cc4ccc(C(=O)O)cc4)c(=O)n(C)c3s2)c1 [Example 79, 4-[6-(3-Methoxy-benzylcarbamoyl)-1-methyl-2,4-dioxo-1,4-dihydro-2H-thieno[2,3-d]pyrimidin-3-ylmethyl]-benzoic acid]",2.05
6,"Cn1c(=O)n(CC(O)COc2cccc3ccccc23)c(=O)c2cc(C(=O)OCc3ccccc3)sc21 (stereo not shown) [Example 126, 3-[2-Hydroxy-3-(naphthalen-1-yloxy)-propyl]-1-methyl-2,4-dioxo-1,2,3,4-tetrahydro-thieno[2,3-d]pyrimidine-6-carboxylic acid benzyl ester]",13000
7,COC(=O)Nc1cc(Cn2c(=O)c3cc(C(=O)NCc4ccc(OC)cc4)sc3n(C)c2=O)on1 [Example 276],230
8,"Cn1c(=O)n(CCCCCCC#N)c(=O)c2cc(C(=O)OCc3ccccc3)sc21 [Example 107, 3-(6-Cyano-hexyl)-1-methyl-2,4-dioxo-1,2,3,4-tetrahydro-thieno[2,3-d]pyrimidine-6-carboxylic acid benzyl ester]",2400
9,"Cn1c(=O)n(CCCOc2ccccc2)c(=O)c2cc(C(=O)OCc3ccccc3)sc21 [Example 123, 1-Methyl-2,4-dioxo-3-(3-phenoxy-propyl)-1,2,3,4-tetrahydro-thieno[2,3-d]pyrimidine-6-carboxylic acid benzyl ester]",7800
10,"CC(C)CCOC(=O)c1cc2c(=O)n(Cc3ccccc3)c(=O)n(C)c2s1 [Example 184, 3-Benzyl-1-methyl-2,4-dioxo-1,2,3,4-tetrahydro-thieno[2,2-d]pyrimidine-6-caboxylic acid 3-methyl-butyl ester]",> 100000
11,"COC(=O)c1ccc(Cn2c(=O)c3cc(C(=O)NCc4cccc(OC)c4)sc3n(C)c2=O)cc1C [Example 241, 4-[6-(3-Methoxy-benzylcarbamoyl)-1-methyl-2,4-dioxo-1,4-dihydro-2H-thieno[2,3-d]pyrimidin-3-ylmethyl]-2-methyl-benzoic acid methyl ester]",19.5
12,"CCC1(COC(=O)c2cc3c(=O)n(Cc4ccccc4)c(=O)n(C)c3s2)COC1 [Example 173, 3-Benzyl-1-methyl-2,4-dioxo-1,2,3,4-tetrahydro-thieno[2,3-d]pyrimidine-6-carboxylic acid 3-ethyl-oxetan-3-ylmethyl ester]",> 100000
13,"Cn1c(=O)n(Cc2ccccc2)c(=O)c2cc(C(=O)OCC3CCC3)sc21 [Example 157, 3-Benzyl-1-methyl-2,4-dioxo-1,2,3,4-tetrahydro-thieno[2,3-d]pyrimidine-6-carboxylic acid cyclobutylmethyl ester]",> 100000
14,"Cn1c(=O)n(Cc2ccccc2)c(=O)c2cc(C(=O)NCCc3ccccn3)sc21 [Example 361, 3-Benzyl-1-methyl-2,4-dioxo-1,2,3,4-tetrahydro-thieno[2,3-d]pyrimidine-6-carboxylic acid (2-pyridin-2-yl-ethyl)-amide]",7700
15,"Cn1c(=O)n(Cc2ccc(C(=O)O)cc2)c(=O)c2cc(C(=O)NCc3ccc(Cl)cc3)sc21 [Example 58, 4-[6-(4-Chloro-benzylcarbamoyl)-1-methyl-2,4-dioxo-1,4-dihydro-2H-thieno[2,3-d]pyrimidin-3-ylmethyl]-benzoic acid]",11.5
16,"Cn1c(=O)n(Cc2ccc(C(=O)O)cc2)c(=O)c2cc(C(=O)NCc3ccncc3)sc21 [Example 51, 4-{1-Methyl-2,4-dioxo-6-[(pyridin-4-ylmethyl)-carbamoyl]-1,4-dihydro-2H-thieno[2,3-d]pyrimidin-3-ylmethyl}-benzoic acid; compound with trifluoro-acetic acid]",20.5
17,COc1cccc(CNC(=O)c2cc3c(=O)n(CCSc4ccc(Cl)cc4)c(=O)n(C)c3s2)c1 [Example 278],7600
18,"Cc1ccc(CNC(=O)c2cc3c(=O)n(Cc4ccccc4)c(=O)n(C)c3s2)cc1 [Example 213, 3-Benzyl-1-methyl-2,4-dioxo-1,2,3,4-tetrahydro-thieno[2,3-d]pyrimidine-6-carboxylic acid 4-methyl-benzylamide]",1700

# The remaining lines, values ahead:
row,IC50 [nM],Compound
1,330,C=C(Cn1c(=O)c2cc(C(=O)OCc3ccccc3)sc2n(C)c1=O)C(=O)O [Example 114]
2,230,COc1cccc(CNC(=O)c2cc3c(=O)n(CCOc4ccc(Br)cc4)c(=O)n(C)c3s2)c1 [Example 295]
3,44,"COc1cccc(CNC(=O)c2cc3c(=O)n(Cc4ccccc4)c(=O)n(C)c3s2)c1 [Example 343, 3-Benzyl-1-methyl-2,4-dioxo-1,2,3,4-tetrahydro-thieno[2,3-d]pyrimidine-6-carboxylic acid 3-methoxy-benzylamide]"
4,17,Cn1c(=O)n(Cc2cccc(Cl)c2)c(=O)c2cc(C(=O)OCc3ccccc3)sc21 [Example 140]
5,63.5,"COc1cccc(CNC(=O)c2cc3c(=O)n(Cc4ccc(C(=O)OCCN(C)C)cc4)c(=O)n(C)c3s2)c1 [Example 68, 4-[6-(3-Methoxy-benzylcarbamoyl)-1-methyl-2,4-dioxo-1,4-dihydro-2H-thieno[2,3-d]pyrimidin-3-ylmethyl]-benzoic acid 2-dimethylamino-ethyl ester]"
6,30000,COc1ccc(CNC(=O)c2cc3c(=O)n(CCNC(=O)c4ccccc4)c(=O)n(C)c3s2)cc1 [Example 272]
7,49.5,"COc1cccc(CNC(=O)c2cc3c(=O)n(CCOc4ccc(F)cc4)c(=O)n(C)c3s2)c1 [Example 236, 3-[2-(4-fluoro-phenoxy)-ethyl]-1-methyl-2,4-dioxo-1,2,3,4-tetrahydro-thieno[2,3-d]pyrimidine-6-carboxylic acid 3-methoxy-benzylamide]"
8,13000,"Cn1c(=O)n(CCCN)c(=O)c2cc(C(=O)OCc3ccccc3)sc21 [Example 116, 3-(3-Amino-propyl)-1-methyl-2,4-dioxo-1,2,3,4-tetrahydro-thieno[2,3-d]pyrimidine-6-carboxylic acid benzyl ester]"
9,3000,"COc1ccc(CNC(=O)c2cc3c(=O)n(CCC(=O)c4ccccc4)c(=O)n(C)c3s2)cc1 [Example 242, 1-Methyl-2,4-dioxo-3-(3-oxo-3-phenyl-propyl)-1,2,3,4-tetrahydro-thieno[2,3-d]pyrimidine-6-carboxylic acid 4-methoxy-benzylamide]"
10,16000,"Cn1c(=O)n(Cc2ccccc2)c(=O)c2cc(C(=O)OCc3c(F)cccc3F)sc21 [Example 158, 3-Benzyl-1-methyl-2,4-dioxo-1,2,3,4-tetrahydro-thieno[2,3-d]pyrimidine-6-carboxylic acid 2,6-difluoro-benzyl ester]"
11,53.5,"COc1cccc(CNC(=O)c2cc3c(=O)n(Cc4ccc(NC(C)=O)cc4)c(=O)n(C)c3s2)c1 [Example 65, 3-(4-Acetylamino-benzyl)-1-methyl-2,4-dioxo-1,2,3,4-tetrahydro-thieno[2,3-d]pyrimidine-6-carboxylic acid 3-methoxy-benzylamide]"
12,> 100000,"COc1cccc(CNC(=O)c2cc3c(=O)n(Cc4ccccc4)c(=O)n(C)c3s2)c1OC [Example 334, 3-Benzyl-1-methyl-2,4-dioxo-1,2,3,4-tetrahydro-thieno[2,3-d]pyrimidine-6-carboxylic acid 2,3-dimethoxy-benzylamide]"
13,1170,"COc1cc(CNC(=O)c2cc3c(=O)n(Cc4ccc([N+](=O)[O-])nc4)c(=O)n(C)c3s2)ccn1 [Example 370, 1-Methyl-3-(6-nitro-pyridin-3-ylmethyl)-2,4-dioxo-1,2,3,4-tetrahydro-thieno[2,3-d]pyrimidine-6-carboxylic acid (2-methoxy-pyridin-4-ylmethyl)-amide]"
14,9900,"CCN(CC)CC(C)OC(=O)c1cc2c(=O)n(Cc3ccccc3)c(=O)n(C)c2s1 (stereo not shown) [Example 152, 3-Benzyl-1-methyl-2,4-dioxo-1,2,3,4-tetrahydro-thieno[2,3-d]pyrimidine-6-carboxylic acid 2-diethylamino-1-methyl-ethyl ester]"
15,18,COc1ccc(CNC(=O)c2cc3c(=O)n(Cc4ccc5nonc5c4)c(=O)n(C)c3s2)cc1 [Example 274]
16,1700,COc1cccc(CNC(=O)c2cc3c(=O)n(CCCCCC#N)c(=O)n(C)c3s2)c1 [Example 283]
17,30000,"COc1ccccc1CNC(=O)c1cc2c(=O)n(Cc3ccccc3)c(=O)n(C)c2s1 [Example 336, 3-Benzyl-1-methyl-2,4-dioxo-1,2,3,4-tetrahydro-thieno[2,3-d]pyrimidine-6-carboxylic acid 2-methoxy-benzylamide]"
18,30000,"Cc1c(C(=O)OCc2ccccc2)sc2[nH]c(=O)n(Cc3ccc(F)cc3)c(=O)c12 [Example 302, 3-(4-Fluoro-benzyl)-5-methyl-2,4-dioxo-1,2,3,4-tetrahydro-thieno[2,3-d]pyrimidine-6-carboxylic acid benzyl ester]"
19,320,"Cn1c(=O)n(Cc2ccccc2)c(=O)c2cc(C(=O)NCc3ccc(Cl)cc3)sc21 [Example 357, 3-Benzyl-1-methyl-2,4-dioxo-1,2,3,4-tetrahydro-thieno[2,3-d]pyrimidine-6-carboxylic acid 4-chloro-benzylamide]"
